From patent US8058442B2 (Technion Research and Development Foundation Ltd., priority 2002, dated 2011)
Read-outs that look alike come from different tables or passages of the source.

What was measured:
[1] = tested on: PC12 cells; assay: Neuroprotection of PC12 cells against serum-deprivation induced apoptosis (MTT test); type: cell-based, rat; conditions: for number of survival cells (cell viability, % of cells cultured with serum): 0.1 μM chelator, serum-free medium, 24 h, serum-free control 38%
Description: Rat PC12 cells, originated from rat pheochromocytoma, were grown at 37° C., in a humid 5% CO2, 95% air environment, in a growth medium containing Dulbecco's modified Eagle's Medium (DMEM, GIBCO, BRL) supplemented with glucose (1 mg/1 ml), 5% fetal calf serum, 10% horse serum, and 1% of a mixture of streptomycin/penicillin. On confluence, the culture was removed and the cells were detached by vigorous washing, centrifuged at 200 g for 5 min and resuspended in DMEM with full serum content. 0.5×10^4 cells/well were placed in microtiter plates (96 wells) precoated with collagen (10 μg/cm^2 were allowed to attach for 24 h before treatment).
Twenty-four hours after attachment of the PC12 cells as described in (g), the medium was replaced with DMEM containing 0.1% BSA. The test compounds were added to the cells after 1 h of incubation. After 24 h incubation, the cells were subjected to MTT test as previously described (Gassen et al., 1998). The absorption was determined in a Perkin-Elmer Dual Wavelength Eliza-Reader at λ=570/650 nm after automatic subtraction of background readings. The results are expressed as percentage of the untreated control.
PC12 cells were grown in serum-free medium alone or in serum-free medium with different concentration of the chelators VK-28, M32, HLA20 and Rasagiline. After 24 h incubation, the cells were subjected to MTT test.
Cell viability was expressed as a percentage of cells cultured in medium supplemented with serum, which served as the control group and was designated as 100%. […] Experimental data are shown as mean±SD (r=6).

[2] = n-octanol/water shake-flask distribution coefficient; type: physicochemical
Source text: The partition coefficient (Pow) or the distribution ratio (Dow) between octanol and water are most commonly used measures of the hydrophobicity of compounds. Dow can depend on the concentration of solute, but at reasonably low concentrations. If the solute is in the same form in both phases, Dow becomes constant and is called the partition coefficient Pow. Pow plays an important role in determining the physico-chemical properties and the behaviour of numerous organic compounds in biological systems. Pow is applied to quantitative structure-activity relationship studies, and as a measure of hydrophobicity. All the partition measurements are carried out using a 1-octanol/water shake-flask procedure (Leo, A J. 1991, “Hydrophobic parameter: measurement and calculation”, Methods Enzymol. 202:544-91) or simply by the elution time of solute from HPLC column. Thereafter, the transport properties of the iron-complexes are examined in the water/lipid membrane system (liposomes), which mimics biomembranes much better than the octanol/water system (Breuer et al, 1995).
1-Octanol (Riedel-deHaën, synthesis grade (250-270 nm abs.<0.06) and glass distilled deionized water were used as the partitioning solutions. A Hewlett-Packard 8450A diode array spectrophotometer was used for the quantitative determination of the tested com-pounds in the standard solutions and in the partitioned solutions. The aqueous phase stock solutions were shaken with an excess of 1-octanol to presaturate them and were then allow-ed to stand overnight before use. The 1-octanol stock solutions were also presaturated with 10 mM NaOH and allowed to settle overnight. The experiments were performed in 10-ml stoppered centrifuge tubes. The tubes were inverted gently for 5 min and then, to assure complete phase separation, they were centrifuged for 20 min at 1,000-2,000 g. The aqueous and organic phases were removed separately and analyzed by UV spectrophotometry.
Lipophilicity plays an important role in drug absorption and distribution. The logarithm of the n-octanol/water distribution coefficients (logD) is the most commonly used measure of the lipophilicity of a drug candidate. Here we used an n-octanol/water shake-flask procedure to determine logD. […] In acidic and basic solution, all the test compounds have low log D values, which refer to a good hydrophilicity. This can be explained by the formation of oxinium chloride (in acid) and sodium oxinate (in base) derivatives.

Compound	number of survival cells (cell viability, % of cells cultured with serum) [1]	inhibitory activity against PC12 apoptosis induced by serum withdrawal ([1]; 1 μM)	PC12 cell death in serum-free medium (toxicity) ([1]; 10 μM)	change in the protection against PC12 cell death induced by serum withdrawal ([1]; 1 or 10 μM, compared with 0.1 μM)	logD ([2]; H2O, read-out: LogD in H2O)	D in 0.01N HCl ([2]; distribution ratio D = Corg/Caq, 0.01N HCl)	D in 0.01N NaOH ([2]; distribution ratio D = Corg/Caq, 0.01N NaOH)	D in H2O ([2]; distribution ratio D = Corg/Caq, H2O)	logD ([2]; pH 2, 0.01N HCl, read-out: LogD in 0.01N HCl)	logD ([2]; pH 12, 0.01N NaOH, read-out: LogD in 0.01N NaOH)
OCCN1CCN(Cc2ccc(O)c3ncccc23)CC1 [VK-28, 5-[4-(2-hydroxyethyl)piperazin-1-ylmethyl]-8-hydroxyquinoline, reference compound]	80%	good inhibitory activity	about 75%							
C#CCN1CCN(Cc2ccc(O)c3ncccc23)CC1 [HLA20, 5-(4-propargylpiperazin-1-ylmethyl)-8-hydroxyquinoline]	65%			no significant change in the protection	1.57	0.025	0.70	37.02	-1.6	-0.16
